# US10441582B2 (priority 2016, dated 2019)
# Key:
# [1] = test system: solid tumor of MKN-45 cells; test: Solid tumor of MKN-45 cells in BALB/c nude mice, intratumoral administration; format: in vivo; conditions: G5, 20 mg/kg intratumoral, FIG. 9
# Method: After about 2 weeks, the ascites was collected and centrifuged at 2000 rpm, and the precipitate was washed twice and then stained with 0.4% […] blue, thereby obtaining 5×10^6 cells/100 μL.
# In the first administration, a suspension volume of 50 μL/head was used regardless of body weight.
# The medium dose used was a 2-fold dilution of the prepared injectable suspension, and the low dose used was a 4-fold dilution of the prepared injectable suspension.
# The injectable suspension was dissolved by heating to a temperature of 42 to 45° C. on a water bath. Next, 20 μL of the solution was administered to the apex of the tumor by means of a 0.3 mL insulin syringe, and 10 μL of the solution was administered to each of three points of the bottom side of the tumor. Accordingly, a total of 50 μL of the solution was administered to the tumor.
# On the final day of the test, the animals were biopsied and visually observed, and the mean weight of the tumors was measured.
# [2] = G5, 20 mg/kg i.v., FIG. 2
# Source text: Fifty 5-week-old BALB/c nude mice (produced by Central Lab Animal Inc., Korea) were purchased and acclimated for 1 week before use in the test.
# The data are expressed as mean±S.D. The results were statistically analyzed by ONE-WAY ANOVA and Student's t-test methods.
# MKN-45 cells = test: MTT assay, cytotoxicity against MKN-45 cells; conditions: Homo sapiens, MKN-45, 24 h, read-out: IC50 (drug concentration that resulted in 50% of cell viability)
# Method: The MKN-45 cell line was subcultured with RPMI1640 medium (supplemented with L-glutamine and 10% FBS) in a 5% CO2 incubator at 37° C. for 48 hours, and was then used in the test.
# The cell line prepared in (2) above was added to each well.
# Then, the cells were cultured in a 5% CO2 incubator at 37° C. for 24 hours, and 50 μL of MTT reagent was added thereto at a concentration of 2 mg/mL. Then, the cells were incubated in an incubator at 37° C. for 4 hours.
# The cell culture was centrifuged to remove the supernatant, and 200 μL of DMSO was added to each well to dissolve the MTT-stained precipitate, after which the OD540 value at a wavelength of 540 nm was measured with an ELISA reader.
smiles,measurement,setting,value
CC(=O)O[C@H]1C(=O)[C@@]2(C)[C@H]([C@H](OC(=O)c3ccccc3)[C@]3(O)C[C@H](OC(=O)[C@H](O)[C@@H](NC(=O)c4ccccc4)c4ccccc4)C(C)=C1C3(C)C)[C@]1(OC(C)=O)CO[C@@H]1C[C@@H]2O [Paclitaxel],State of solid tumor (photographs),[1]; 2 weeks after administration,proliferated
same,Proliferation of tumor cells,[1],≥ 5 fold
same,Decrease in body weight,[2],significant decrease in body weight
same,IC50,MKN-45 cells,0.1 µg/mL
